Where “and” joins values, the source holds several entries; their conditions need not be identical. Equal values may be shown once.
Key:
GSK3β = GSK3β (Homo sapiens, UniProt P49841); assay: ADP-Glo kinase assay; assay type: biochemical; conditions: for remaining activity at 1 µM: 1 µM compound; for remaining activity at 1 µM / remaining activity at 10 µM: read-out: % of residual activity; for remaining activity at 10 µM: 10 µM compound
Protocol: (§1) Kinase enzymatic activities of CDK5/p25, CDK9/CyclinT, HASPIN, PIM1, GSK3β, CK1ε, ABL1, and JAK3 were assayed using the luminescent ADP detection assay described in Zegzouti et al. (ADP-GloTM assay kit provided by Promega, Madison, WI, USA). Briefly, the reactions were carried out in appropriate kinase buffer, with either protein or peptide as substrate in the presence of 10 µM ATP. Assay conditions used for each kinase tested here are described in Ibrahim et al.. The Envision (PerkinElmer, Waltham, MA, USA) microplate luminometer was used to measure the transmitted signal expressed in Relative Light Unit (RLU). In order to determine the half maximal inhibitory concentration (IC50), the assays were performed in duplicate in the absence or presence of increasing doses of the tested compounds. Kinase activities are expressed in % of maximal activity, i.e., measured in the absence of inhibitor but with a similar dose of DMSO (solvent of the tested compounds).

CDK9/CyclinT = CDK9/CyclinT (Homo sapiens, UniProt P50750); assay: ADP-Glo kinase assay; assay type: biochemical; conditions: 10 µM ATP, read-out: % of residual activity; for remaining activity at 1 µM: 1 µM compound; for remaining activity at 10 µM: 10 µM compound
Sequence of CDK9/CyclinT (P50750 whole entry): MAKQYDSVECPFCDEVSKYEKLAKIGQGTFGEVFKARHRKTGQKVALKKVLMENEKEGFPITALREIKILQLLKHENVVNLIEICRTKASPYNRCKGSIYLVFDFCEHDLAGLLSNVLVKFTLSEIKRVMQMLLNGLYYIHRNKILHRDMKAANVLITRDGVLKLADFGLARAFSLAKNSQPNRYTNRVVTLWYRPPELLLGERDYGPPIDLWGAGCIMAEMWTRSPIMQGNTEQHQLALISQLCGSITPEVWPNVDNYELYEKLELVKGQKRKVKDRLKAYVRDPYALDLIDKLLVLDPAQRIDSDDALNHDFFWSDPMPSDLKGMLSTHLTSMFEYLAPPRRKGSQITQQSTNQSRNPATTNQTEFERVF
Sequence of CDK9/CyclinT (O60563 whole entry partner): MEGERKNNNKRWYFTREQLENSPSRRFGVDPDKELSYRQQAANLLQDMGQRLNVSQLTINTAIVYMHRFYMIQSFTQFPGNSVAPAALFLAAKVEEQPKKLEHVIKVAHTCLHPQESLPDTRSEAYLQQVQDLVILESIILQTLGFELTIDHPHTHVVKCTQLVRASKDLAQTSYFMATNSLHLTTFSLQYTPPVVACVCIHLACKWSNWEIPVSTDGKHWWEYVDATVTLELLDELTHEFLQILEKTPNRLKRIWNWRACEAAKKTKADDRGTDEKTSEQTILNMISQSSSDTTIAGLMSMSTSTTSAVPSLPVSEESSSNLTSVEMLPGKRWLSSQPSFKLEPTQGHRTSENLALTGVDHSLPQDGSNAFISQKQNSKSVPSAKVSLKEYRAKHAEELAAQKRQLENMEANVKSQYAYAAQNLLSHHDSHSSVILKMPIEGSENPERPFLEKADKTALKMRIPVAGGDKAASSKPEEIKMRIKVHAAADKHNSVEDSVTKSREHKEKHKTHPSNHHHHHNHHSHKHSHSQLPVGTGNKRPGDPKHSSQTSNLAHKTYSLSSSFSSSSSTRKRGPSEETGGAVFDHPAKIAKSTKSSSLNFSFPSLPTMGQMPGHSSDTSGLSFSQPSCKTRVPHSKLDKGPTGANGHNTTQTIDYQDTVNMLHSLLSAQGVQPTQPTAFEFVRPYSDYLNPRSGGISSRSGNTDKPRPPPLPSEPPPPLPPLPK
Protocol: as §1

CDK5/p25 = CDK5/p25 (Homo sapiens, UniProt Q00535); assay: ADP-Glo kinase assay; assay type: biochemical; conditions: 10 µM ATP, read-out: % of residual activity; for remaining activity at 1 µM: CDK5/p25, 1 µM compound; for remaining activity at 10 µM: CDK5/p25, 10 µM compound
Sequence of CDK5/p25 (Q00535 whole entry): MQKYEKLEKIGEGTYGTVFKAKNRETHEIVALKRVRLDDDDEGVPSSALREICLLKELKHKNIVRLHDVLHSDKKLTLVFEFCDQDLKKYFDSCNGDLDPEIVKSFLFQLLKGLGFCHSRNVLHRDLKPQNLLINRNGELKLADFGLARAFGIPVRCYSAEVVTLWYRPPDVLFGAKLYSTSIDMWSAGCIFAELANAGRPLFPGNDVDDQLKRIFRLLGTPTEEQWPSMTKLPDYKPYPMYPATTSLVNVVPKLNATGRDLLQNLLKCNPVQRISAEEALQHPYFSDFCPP
Sequence of CDK5/p25 (Q15078 99-307 partner limits assumed): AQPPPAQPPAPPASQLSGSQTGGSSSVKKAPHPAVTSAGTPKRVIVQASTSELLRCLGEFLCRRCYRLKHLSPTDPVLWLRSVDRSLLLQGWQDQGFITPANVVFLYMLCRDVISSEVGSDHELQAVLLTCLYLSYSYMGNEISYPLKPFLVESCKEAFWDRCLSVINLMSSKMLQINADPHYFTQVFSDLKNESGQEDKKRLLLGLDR
Protocol: as §1

[1] = test system: cancer cells (HeLa, HCT-116, HepG2, MDA-MB-231); assay: MTT cytotoxicity assay, cancer cell panel (range over lines); assay type: cell-based; conditions: Homo sapiens, 72 h
Protocol: (§2) To assess the cytotoxicity of the compounds, the MTT [3-(4,5-dimethylthiazol-2-yl)-2,5-diphenyltetrazolium bromide] assay was employed. The cells (2 × 10^5/mL) were incubated with the substances at concentrations ranging from 0.78 to 25 µg/mL. β-lap was used as a positive control. After 24, 48, or 72 h of incubation, MTT was added at a concentration of 5 mg/mL. Cell viability in different treatments was compared to the negative control using the following formula: Cell viability%=mean absorbance of treated samples/mean absorbance of negative control×100 The IC50 (the concentration that inhibits 50% of cell growth compared to the negative control) was calculated using nonlinear regression in GraphPad Prism 8.0 for Windows (GraphPad Demo Software, San Diego, CA, USA). Experiments were performed in triplicate and in two independent experiments. The protocol is also described in other previous publications.

[2] = test system: HCT-116 (human colon carcinoma); assay: MTT cytotoxicity assay, HCT-116; assay type: cell-based; conditions: for IC50: Homo sapiens, HCT-116, 72 h, MTT; for selectivity index (SI): IC50 L929 / IC50 HCT-116, 72 h
Protocol: as §2, with “publications. The IC50 of normal and cancer cells was used to calculate the SI of compounds BV3 and BV5. The SI indicated the selectivity of the compounds among the normal cell line (L-929) and a cancer cell line (HCT-116, MDA-MB-231, HepG2, or HeLa). SI is a crucial parameter for therapeutic applications in upcoming clinical trials. Therefore, the following formula was used to calculate SI: SI=IC50(normal cell line)/IC50(cancer cell line)” for “publications.”

[3] = test system: HeLa (human cervical adenocarcinoma); assay: MTT cytotoxicity assay, HeLa; assay type: cell-based; conditions: for IC50: Homo sapiens, HeLa, MTT; for selectivity index (SI): IC50 L929 / IC50 HeLa
Protocol: as §2, with “publications. The IC50 of normal and cancer cells was used to calculate the SI of compounds BV3 and BV5. The SI indicated the selectivity of the compounds among the normal cell line (L-929) and a cancer cell line (HCT-116, MDA-MB-231, HepG2, or HeLa). SI is a crucial parameter for therapeutic applications in upcoming clinical trials. Therefore, the following formula was used to calculate SI: SI=IC50(normal cell line)/IC50(cancer cell line)” for “publications.”

[4] = test system: HepG2 (human hepatocellular carcinoma); assay: MTT cytotoxicity assay, HepG2; assay type: cell-based; conditions: for IC50: Homo sapiens, HepG2, 72 h, MTT; for selectivity index (SI): IC50 L929 / IC50 HepG2, 72 h
Protocol: as §2, with “publications. The IC50 of normal and cancer cells was used to calculate the SI of compounds BV3 and BV5. The SI indicated the selectivity of the compounds among the normal cell line (L-929) and a cancer cell line (HCT-116, MDA-MB-231, HepG2, or HeLa). SI is a crucial parameter for therapeutic applications in upcoming clinical trials. Therefore, the following formula was used to calculate SI: SI=IC50(normal cell line)/IC50(cancer cell line)” for “publications.”

HeLa cells = assay: Annexin V-FITC / propidium iodide flow cytometry (apoptosis or necrosis); assay type: cell-based, human; conditions: 48 h; for necrosis compared to negative control: BV3 at the IC50 concentration; for cell viability compared to negative control: IC50 or 2 × IC50
Protocol: The analysis was performed using flow cytometry with the Annexin V Apoptosis Detection Kit (eBioscience™, USA) following the manufacturer’s instructions. Initially, HeLa cells were incubated at a concentration of 4 × 10^5 cells/mL and treated with the compounds at their IC50 or 2 × IC50 values obtained at 48 h. β-lap was used as a positive control, and the culture medium as the negative control. After 48 h of treatment, the cells were trypsinized and centrifuged at 1200× g for 5 min. Subsequently, the cells were washed with PBS and centrifuged again. The cells were then resuspended in buffer and incubated with 5 µL of Annexin V-FITC for 10 min. Afterward, the cells were washed with the buffer, centrifuged, resuspended in the buffer, and stained with 10 µL of propidium iodide. The cells were acquired using the Guava EasyCyteHT cytometer (Merck-Millipore, Burlington, MA, USA) with Guava—Soft™ software version 2.7. A total of 5000 events were counted per treatment.

Sequence of GSK3β (P49841 whole entry): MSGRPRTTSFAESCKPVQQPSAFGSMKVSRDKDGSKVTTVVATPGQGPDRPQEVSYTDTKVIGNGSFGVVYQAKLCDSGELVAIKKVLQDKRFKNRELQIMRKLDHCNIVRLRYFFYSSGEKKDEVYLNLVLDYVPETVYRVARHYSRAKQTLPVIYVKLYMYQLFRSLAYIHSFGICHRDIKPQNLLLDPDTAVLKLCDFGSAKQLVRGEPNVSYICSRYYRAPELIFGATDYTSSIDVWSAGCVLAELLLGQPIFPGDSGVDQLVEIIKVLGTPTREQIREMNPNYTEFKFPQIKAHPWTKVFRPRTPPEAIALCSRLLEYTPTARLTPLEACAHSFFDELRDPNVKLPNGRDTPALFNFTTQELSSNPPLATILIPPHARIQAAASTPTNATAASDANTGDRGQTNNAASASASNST

Compound | remaining activity at 1 µM (GSK3β; 10 µM ATP) [%] | IC50 (GSK3β; 10 µM ATP) [µM] | remaining activity at 10 µM (GSK3β; 10 µM ATP) [%] | IC50 (GSK3β; dose–response curve, Figure 5) [µM] | remaining activity at 1 µM (CDK9/CyclinT) [%] | remaining activity at 10 µM (CDK9/CyclinT) [%] | remaining activity at 1 µM (CDK5/p25) [%] | remaining activity at 10 µM (CDK5/p25) [%] | IC50 [1] [µM] | IC50 [2] [µM] | selectivity index (SI) [2] | IC50 ([3]; 24 h) [µM] | IC50 ([3]; 48 h) [µM] | IC50 ([3]; 72 h) [µM] | selectivity index (SI) ([3]; 72 h) | IC50 [4] [µM] | selectivity index (SI) [4] | necrosis compared to negative control (HeLa cells) | cell viability compared to negative control (HeLa cells) | early apoptosis compared to negative control (HeLa cells)
CC1(C)CCC2=C(O1)c1ccccc1/C(=N/NC(=S)Nc1ccc([N+](=O)[O-])cc1)C2=O [BV3, 2-(2,2-dimethyl-5-oxo-3,4-dihydro-2H-benzo[h]chromen-6(5H)-ylidene)-N-(4nitrophen-yl)thio-carbohydrazide] | 58 | 1 | 7 | 1 | ≥ 100 | 67 | ≥ 100 | 44 | 2.81 to 20.6 | 20.6 | 2.13 | > 57 | 23.5 | 2.81 | 15.6 | 12.6 | 3.47 | increases | significantly decreased cell viability | 
Cc1ccc(NC(=S)N/N=C2\C(=O)C3=C(OC(C)(C)CC3)c3ccccc32)cc1 [BV5, 2-(2,2-dimethyl-5-oxo-3,4-dihydro-2H-benzo[h]chromen-6(5H)-ylidene)-N-(p-tolyl)-thiocarbohydrazide] | 64 | 4.91 | 24 |  | ≥ 100 | 78 | ≥ 100 | 62 | 15.5 to 36.9 | 36.9 |  | > 61 | 24.5 | 17.8 |  | 17.9 |  |  | significantly decreased cell viability | 
CC1(C)CCC2=C(O1)c1ccccc1C(=O)C2=O [β-lap, β-Lapachone] | 67 |  | 43 |  | ≥ 100 | 72 | 74 | 88 | 0.12 to 3.38 | 0.14 | 32.4 | 10.7 | 8.87 | 2.39 | 1.89 and 1.9 | 0.12 | 37.8 | increases | reduced the number of viable cells | significantly increased

Reference: publication PMC12196213, “New Insights into the Anticancer Effects and Toxicogenomic Safety of Two β-Lapachone Derivatives” (Pharmaceuticals, 2025)
